Test results reported in a melting point compilation (Tetko et al.; mined from patent text by program, amines drawn as free bases though some values may be those of a salt).

Row | melting point [°C] | Compound
1 | 56 to 58 | CC(C)c1nc(CN(C)C(=O)N[C@@H](C)C(=O)N[C@@H](Cc2ccccc2)C[C@H](O)[C@H](Cc2ccccc2)NC(=O)OCc2cncs2)cs1
2 | 145 to 146 | CC(=O)N(c1cccc(Oc2ccccc2)c1)C(C)C(=O)O (centres undefined)
3 | 86 to 87 | CCOC(=O)Cc1cn(Cc2ccccc2)nc1OCc1ccc(OCc2nc(-c3ccccc3)oc2C)c(OC)c1
4 | 114 | CCCCCCCNC(=O)N(C)c1cccc(-c2ccc(C=C(OC)C(=O)O)cc2)c1
5 | 88 to 90 | CC(Nc1nc(-c2ccccc2)cs1)c1ccc(CO)cc1 (centres undefined)
6 | 158 to 160 | CC(C)=CCOc1ccc2c(=O)c(C)c(-c3ccccc3)oc2c1C(=O)C=Cc1cccs1
7 | 177 to 179 | CCOC(=O)C1=C(c2ccc(-n3c(C)nc4cnccc43)cc2)NC(C)=C(C(=O)OCCC#N)C1c1ccccc1Cl (centres undefined)
8 | 118 to 120 | CCN(CC)C(=O)c1c(OC)ccc2cc(-c3ccc(OC)cc3)ccc12
9 | 181 to 182 | CC(C)N(CC1CCCCN1CCNC(=O)N1c2ccccc2C(=O)Nc2cccnc21)C(C)C (centres undefined)
10 | 107 to 109 | Cc1cccc(-c2nc(N)sc2-c2cccc(-c3ccc(S(C)(=O)=O)cc3)c2)n1
11 | 182 to 184 | CCN1CCN(Cc2nc(-c3ccc4c(c3)Nc3ccccc3S4)cs2)CC1
12 | 130 to 131 | Cc1cccc(-c2n[nH]cc2-c2ccc(F)c(-c3cn(CCN(C)C)cn3)c2)n1
13 | 83 to 84 | CCC(CN1CCCCC1)C(=O)c1cc(-c2ccccc2)no1 (centres undefined)
14 | 140 | Cc1c(C(=O)Nc2ccc(OCCO)cc2)nnn1Cc1ccc(Cl)c(Cl)c1
15 | 160 to 162 | CCn1cc(C(=O)O)c(=O)cc1-c1ccc(N(C)C)c(C)c1
16 | 173 to 174 | COc1ccc(S(=O)(=O)[C@H](CCCCc2ccccc2)[C@H](C(=O)O)C(C)C)cc1OC (relative stereo)
17 | 196 to 197 | CCONC(=O)Cc1ccc2cc(OC)ccc2c1

Row | melting point [°C] | Compound
18 | 215 to 220 | Cn1ccc(=O)c(O)c1CC(O)c1cccnc1 (centres undefined)
19 | 138 to 139 | CC#CN(C(C)=O)c1nc2ccccc2s1
20 | 229 to 232 | C[C@@H]1CN2C(=O)c3ccccc3[C@@](O)(c3ccc(F)cc3)C2=N1
21 | 81 | CC(C)OC(=O)C(C)Oc1ccc(COc2ccc(Cl)cc2)cc1 (centres undefined)
22 | 149 to 150 | CC(C(=O)NCCN(C)C)c1ccc(-c2cn3ccccc3n2)cc1 (centres undefined)
23 | 56.8 | CSc1cc(-c2ccccc2)nc(-c2cccc(CCl)c2)c1
24 | 161 to 162 | O=C1CCCc2c1c1cccc(Cl)c1n2Cc1ccccc1
25 | 78 to 79 | COC(=O)Cc1ccc(OCC(C)NCC(O)c2ccc(Cl)cc2)cc1 (centres undefined)
26 | 130 | CC(=O)N1CCc2cc(C(=O)CN(Cc3ccccc3)Cc3ccccc3)ccc21
27 | 90 to 91 | Cc1sc(-c2ccccc2)nc1-c1ccc(Cl)cc1
28 | 159 to 161 | CC(C)c1nc(-c2ccccc2)n(-c2ccc(F)cc2)c1C=O
29 | 156 to 157 | O=[N+]([O-])c1ccc(-c2nc3cc(OCc4ccccc4)ccc3s2)c(Cl)c1
30 | 144 to 145 | CNC(=O)C(=O)c1ccccc1COc1ccc(-c2ccccc2)cc1
31 | 206 to 207 | O=C(N[C@H](Cc1ccc(C(F)(F)F)cc1)[C@@H](O)c1ccoc1)c1ccc(F)c2ccccc12 (racemic)
32 | 137 | CC(C)c1oc(-c2ccccc2)c(-c2ccc(F)c(Oc3ccccc3)c2)c1C=O
33 | 53 to 54 | Cc1cccc2nc(-c3ccccc3)sc12

Further lines, the compound ahead of its results:

Row | Compound | melting point [°C]
34 | CN(C)C=Nc1c(Cl)cc(N=Cc2ccccc2F)cc1Cl | 79 to 81
35 | CC1CCN(C2=NCC(=O)N(C)c3ccccc32)CC1 | 106 to 108
36 | O=C1OC(=O)c2cc(C(F)(F)F)ccc21 | 54
37 | C=C1C(=C)C2OC1C1=C2Cc2c(cccc2OC)C1 (centres undefined) | 145 to 147
38 | O=[N+]([O-])C/C=C/c1sc2ccc(Cl)cc2c1Cl | 143 to 146
39 | N=C(NCc1cnc(Cl)s1)N[N+](=O)[O-] | 160 to 162
40 | Cc1nc(NC2CCCC2O)c2ncn(C3OC(CO)C(O)C3O)c2n1 (centres undefined) | 188 to 192
41 | COc1cc(C)cc(OC)c1CCCCCNC(=O)[C@@H](CCCCNC(=O)C=Cc1ccccc1)NC(=O)c1cc2ccccc2n1CC(=O)O | 172
42 | COC(CCC(C)C1CCC2C3C(OC(C)=O)CC4CC(OC(C)=O)CCC4(C)C3CC(=O)C12C)=NNS(=O)(=O)c1ccc(C)cc1 (centres undefined) | 146 to 147
43 | Cc1c(Cl)cccc1S(=O)(=O)Nc1ccc2occ(C)c2c1 | 120
44 | CS(=O)(=O)CC(=O)N[C@H]1CC[C@H](CCN2CCN(c3nccc4c3CCO4)CC2)CC1 | 260
45 | O=C1N(CC2CCCO2)c2ccccc2C12COc1cc3c(cc12)CCCC3 (centres undefined) | 139 to 141
46 | Nc1ccc(Sc2cc(I)nc(I)c2)cc1 | 175 to 176
47 | CC(C)(C)c1ccc(-c2ccc(COc3cccc4cc(NS(=O)(=O)C(F)(F)F)ccc34)c(F)c2)cc1 | 162 to 164
48 | O=C1CCCc2nc(C#Cc3cccnc3)ccc21 | 120 to 122
49 | Oc1ccc(CCC(CCc2ccc(O)cc2)(c2ccc(O)cc2)c2ccc(O)cc2)cc1 | 252
50 | CCOC(=O)C(C(=O)CC)C(=O)OCC | 89 to 93
51 | N#CC(CC1CCCCC1)c1ccc(Cl)cc1Cl (centres undefined) | 58.8
52 | FC(F)(F)Oc1ccc2nc(-c3ccc(Cl)cc3)[nH]c2c1 | 190 to 192
53 | Cc1cccc(C(=O)Nc2nc(C(Cl)(Cl)Cl)ns2)c1 | 142
54 | FC(F)(F)c1cnc2nc1Nc1cccc(c1)/C=C\c1cccc(c1)N2 | 167 to 169
55 | c1ccc(Oc2cnccc2N2CCNCC2)cc1 | 74 to 77

Row | Compound | melting point [°C]
56 | CCOC1(C)OCC(O)O1 (centres undefined) | 86 to 87
57 | COC(=O)c1cc(Br)c2cc(Cc3ccc(F)cc3)cnc2c1O | 152
58 | CN(C)c1ccc(F)c(C#N)c1 | 72 to 72.5
59 | COC(=O)c1cc(O)cc(OC)c1 | 85 to 86
60 | CCNC1CC=C(c2c[nH]c3ccc(NC(=N)c4cccs4)cc23)CC1 (centres undefined) | 190 to 192
61 | COc1cc2cc(C(C#N)(C(C)CC#N)N3CCOCC3)sc2cc1OC (centres undefined) | 162 to 165
62 | Cn1c(=O)c2c(ncn2CCCCCCO)n(C)c1=O | 80
63 | O=S(=O)(CCNc1ccccc1)NCCCOc1cccc(CN2CCCCC2)c1 | 112 to 115
64 | O=C(CCl)N[C@@H]1CCCC[C@H]1NC(=O)CCl (relative stereo) | 202 to 203
65 | COC(=O)C1=C(C)NC(C)=C(C(=O)OCC=Cc2ccccc2)C1c1cccc([N+](=O)[O-])c1 (centres undefined) | 143 to 144
66 | Cn1ncc(C(=O)N2CCOCC2)c1C(=O)Nc1ccn2nc(-c3cccc(F)c3)nc2c1 | 212 to 214
67 | Cc1ccc(C(=O)CCc2ccc(N3CCN(c4ccncc4)CC3)cc2)cc1 | 114 to 115
68 | Cc1ncc(CN2CCc3ccccc3C2)c(N)n1 | 150 to 153
69 | CCOC(=O)C1CCn2c(cc3ccccc32)C1OC(C)=O (centres undefined) | 98 to 100
70 | Cc1cc(S)n2nc(CC(=O)O)nc2n1 | 253 to 255
71 | Cn1c(=O)c2cccc(N)c2c(=O)c2ccccc21 | 171 to 173
72 | COCC1CCCN1S(=O)(=O)c1ccc2c(c1)C1(OCCCO1)C1=NCC(C)(C)CN12 (centres undefined) | 169 to 171
73 | Cc1ccccc1-c1c(NC(=O)Nc2ccc(F)cc2F)c(=O)oc2c(F)cc(F)cc12 | 220 to 221
74 | CN(c1ncc(Br)cn1)[C@H]1CC[C@H](C#CCO)CC1 | 156 to 157
75 | Cc1c(C(=O)Nc2ccc(N3CCC(N4CCOCC4)CC3)c(C#N)c2)cnn1Cc1ccccc1 | 155
76 | CCCC(=O)c1cc2c(=O)cc(C(=O)OCC)[nH]c2cc1C | 173 to 175
77 | CCCc1ccnc(C(=O)c2[nH]c3ccc(Cl)cc3c2CC(=O)O)c1 | 208 to 209

Row | Compound | melting point [°C]
78 | N#Cc1cnn2c(-c3cccc(Cl)c3)ccnc12 | 238 to 240
79 | O=C(Cc1ccccc1)Nc1cc(Cl)c(Cl)cc1[N+](=O)[O-] | 116 to 118
80 | COc1ccc(CNC(=S)N2CCN(c3ncnc4cc(OC)c(OC)cc34)CC2)cc1 | 201 to 204
81 | Cn1c([N+](=O)[O-])cnc1C1=NOC2CCCCC12 (centres undefined) | 119 to 121
82 | CCCCCCCCCOc1ccc(F)c(C(N)=O)c1Cl | 64 to 66
83 | OCc1cccc2c1CCc1ccccc1-2 | 108 to 110
84 | CS(=O)(=O)c1ccc(-c2cc(Br)sc2-c2ccc(F)cc2)cc1 | 122 to 124
85 | COc1cc2c(cc1OC(=O)c1ccccc1)C1Cc3c(Cl)cc(OC)c(OC(=O)c4ccccc4)c3CN1CC2 (centres undefined) | 152 to 154
86 | Cc1cc(F)ccc1-c1nc(-c2cn(N)c(=O)[nH]c2=O)nc2c1ccc(=O)n2-c1c(F)cccc1F | > 300
87 | CCCC(O)c1cc2c(cc1C)OCO2 (centres undefined) | 65.5 to 66.5
88 | COc1cc(-c2nc(-c3cc(OC)c(OCc4ccccc4)c(OC)c3)c(-c3cc(OC)c(OCc4ccccc4)c(OC)c3)o2)cc(OC)c1OCc1ccccc1 | 80 to 120
89 | CN(C(CCn1c(=O)cc(Cl)[nH]c1=O)C(=O)NO)S(=O)(=O)c1ccc(Oc2ccc(Cl)cc2)cc1 (centres undefined) | 171 to 173
90 | Oc1cccc(Sc2ncccc2O)c1 | 147 to 148
91 | CCc1nc2c(C)c(S(=O)(=O)N(C)C)c(C)nc2[nH]1 | 179 to 182
92 | CCC=C(C)C(O)C(CC)CC (centres undefined) | 92 to 93
93 | N#CC1=C(C2CCC2)Nc2n[nH]cc2C1c1ccccc1Cl (centres undefined) | 188
94 | FC(F)(F)c1ccc2nc(CN3CCN(c4ccc(Cl)cc4)CC3)cn2c1 | 128 to 135
95 | O=C(O)c1cn(OCC2CN(Cc3ccccc3)CCN2Cc2ccccc2)c2cc(F)c(F)cc2c1=O (centres undefined) | 158 to 159
96 | N#CC(N)c1ccc(F)cc1 (centres undefined) | 77.9
97 | CCOC(=O)CCCCn1c(=O)[nH]c2ccc(F)cc2c1=O | 131 to 132
98 | CC(=O)n1nc(-c2c(C)cc(C)c(N)c2C)n2nc(C(C)(C)C)cc12 | 206 to 207
99 | Cn1c(=O)c2c(ncn2CC(=O)Nc2ccc(-n3nc(C(F)(F)F)cc3C3CC3)cc2)n(C)c1=O | 178 to 184
